# Results: patent US20090118253A1, “COMPOSITIONS AND METHODS FOR TREATING DYSFUNCTIONAL UTERINE BLEEDING” (REPROS THERAPEUTICS INC., priority 2007, published 2009)
# Legend:
# glucocorticoid receptor = target: T1, glucocorticoid receptor (Homo sapiens, UniProt P04150); details: compared with parent CDB-4124; cited from earlier work
# T1 sequence (P04150 1-777): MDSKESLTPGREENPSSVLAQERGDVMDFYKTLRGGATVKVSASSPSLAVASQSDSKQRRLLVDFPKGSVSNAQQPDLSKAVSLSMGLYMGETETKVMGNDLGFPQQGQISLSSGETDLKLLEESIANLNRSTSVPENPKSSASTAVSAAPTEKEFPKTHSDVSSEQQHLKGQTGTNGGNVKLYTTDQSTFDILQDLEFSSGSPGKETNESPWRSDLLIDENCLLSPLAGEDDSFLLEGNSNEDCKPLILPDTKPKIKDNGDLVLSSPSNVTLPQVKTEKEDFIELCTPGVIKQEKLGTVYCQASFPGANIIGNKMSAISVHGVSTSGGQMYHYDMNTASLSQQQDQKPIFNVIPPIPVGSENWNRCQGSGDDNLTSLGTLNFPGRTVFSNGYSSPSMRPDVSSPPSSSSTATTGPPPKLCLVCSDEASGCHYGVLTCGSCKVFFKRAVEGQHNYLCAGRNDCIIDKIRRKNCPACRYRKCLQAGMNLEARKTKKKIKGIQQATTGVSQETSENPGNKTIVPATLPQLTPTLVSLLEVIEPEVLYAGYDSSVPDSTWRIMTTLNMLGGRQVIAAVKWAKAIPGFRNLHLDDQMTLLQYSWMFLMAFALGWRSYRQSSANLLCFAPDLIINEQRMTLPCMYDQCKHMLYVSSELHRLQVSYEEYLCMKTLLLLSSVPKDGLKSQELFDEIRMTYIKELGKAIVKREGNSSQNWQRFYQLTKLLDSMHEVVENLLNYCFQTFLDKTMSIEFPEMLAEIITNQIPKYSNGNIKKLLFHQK
# [1] = test system: Cynomolgus monkey endometrial epithelia, uterus stroma and breast; assay: BrdU incorporation, tissue proliferation in cynomolgus monkeys; format: in vivo, Cynomolgus monkeys (Macaca fascicularis); details: week 36, % cells positive for incorporation of BrdU, three animals per group
# Method: At week 36, three animals from each group of Example 6 were injected within 24 hours of sacrifice with the thymidine analog bromodeoxyuridine (BrdU), a marker of proliferating cells and their progeny, to assess tissue proliferation. Full thickness uterine sections were stained and examined microscopically for evidence of proliferation in terms of the % cells positive for incorporation of BrdU: […]
# [2] = test system: pre-menopausal adult women diagnosed with endometriosis; assay: Six month endometriosis study: pain diaries and pain intensity surveys; format: in vivo, human
# Method: Pain reduction also occurred more rapidly than with the active control, Lucrin®. The response of pain to treatment in this study was analyzed in two ways. Patients in the study maintained daily pain diaries to record the severity and frequency of pain. In addition, at each office visit, patients filled out endometriosis symptom surveys that included a questionnaire that evaluated intensity of pain on a bad day on a scale of 0-10 with 10 being the greatest intensity. […] This decrease in duration of pain was statistically better (p=0.0012) than the 117.8 (74%; standard deviation 51.4 days) pain free days achieved with Lucrin n. […] Patients on CDB-4124 12.5 mg and 25 mg doses had 115.9 (66%; standard deviation 69.2 days) and 133.6 (75%; standard deviation 27.4 days) pain free days, respectively. […] The 25 mg and 12.5 mg doses of CDB-4124 were not statistically different from Lucrin®. […] The intensity of pain was asked by the question: “On a scale of 1-10, with 0 being no pain and 10 being extreme pain, how intense was your pain on a bad day?” The mean scores for intensity of pain at baseline were 6.3 for the CDB-4124 groups and 6.1 for the Lucrin® group. […] At month three all four active treatment groups had satistically significant reduction in pain compared with baseline, with the following scores: 3.7 (p=0.03) for 12.5 mg CDB-4124, 3.2 (p=0.03) for 25 mg CDB-4124, 1.6 (p=0.015) for 50 mg CDB-4124 and 1.5 (p=0.016) for Lucrin®. These dose related reductions continued until month six when the values for pain intensity were 2.0 (p=0.008), 2.8 (p=0.023), 0.6 (p=0.004) and 0.7 (p=0.016), respectively. Two months after stopping treatment pain returned and was of similar intensity in all four treatment groups.
# human endometrium = assay: Six month endometriosis study: ultrasound measurements of endometrial thickness; format: in vivo
# Excerpt: Women in the study were closely monitored for changes in the structure of the endometrium. […] Comparisons were made to both baseline and visit one ultrasound measurements of endometrial thickness. […]
# [3] = in vivo
# Method: Thirty-nine pre-menopausal adult women diagnosed with endometriosis were the subject of a six month study of Proellex™ (CDB-4124) in the treatment of endometriosis. The study included three dose levels of CDB-4124 as well as a positive control arm. The positive control was Lucrin®, a GnRH agonist, commonly used for the treatment of endometriosis (also known as Lupron®). CDB-4124 was administered in a double blinded fashion as a daily oral capsule at dosages of 12.5mg/day (n=2), 25mg/day (n=3) and 50mg/day (n=3). Another group (n=4) were injected with a slow release formulation of Lucrin® once per month as a positive control.
# [4] = Urinary progesterone levels (luteal phase) in cynomolgus monkeys; format: in vivo, Cynomolgus monkeys (Macaca fascicularis); details: n=14 per group; CDB-4124 or RU-486 oral 1.0 mg/kg/day for 36 weeks; Lupron IM once per month
# Method: (§1) Cynomolgus monkeys (Macaca fascicularis) (n=14) were treated orally for 36 weeks with CDB-4124 or RU-486 at 1.0 mg/kg/day or with placebo (control). Another group (n=14) received Lupron® IM once per month. Urinary progesterone levels were measured for each animal for one month during the middle of the study (weeks 14-17) and for the last month of the study (weeks 33-36).
# [5] = test system: Cynomolgus monkey endometrial epithelium, uterus stroma and breast; assay: TUNEL apoptosis in cynomolgus monkey tissue; format: in vivo, Cynomolgus monkeys (Macaca fascicularis); details: week 36, percent apoptotic cells
# Method: Apoptosis was assessed in tissue from the same animals on slides by the terminal deoxynucleotidyl transferase mediated dUTP-biotin nick end labeling (TUNEL) technique.
# [6] = Urinary estrogen levels (follicular phase) in cynomolgus monkeys; format: in vivo, Cynomolgus monkeys (Macaca fascicularis); parameters: Urinary estrogen, follicular phase, Mean: unit not given here; details: for Urinary estrogen, follicular phase, Mean: CDB-4124 or RU-486 oral 1.0 mg/kg/day, Lupron IM once per month
# Method: as §1, with “33-36). The results are presented below:” for “33-36).”
# Urinary estrogen levels were measured for each animal of Example 6 for one month during the middle of the study (weeks 14-17) and for the last month of the study (weeks 33-36). The follicular phase results are based on 35 baseline ovulating cycles.
compound,measurement,setting,value
"CNc1ccc([C@H]2C[C@@]3(C)[C@@H](CC[C@]3(OC(C)=O)C(=O)COC)[C@@H]3CCC4=CC(=O)CCC4=C32)cc1 [CDB-4453, 21-methoxy-17α-acetoxy-11β-(4-N-methylaminophenyl)-19-norpregna-4,9-diene-3,20-dione]",anti-glucocorticoid activity,glucocorticoid receptor,even lower anti-glucocorticoid activity than its parent
"CCNC(=O)[C@@H]1CCCN1C(=O)[C@H](CCCNC(=N)N)NC(=O)[C@H](CC(C)C)NC(=O)[C@@H](CC(C)C)NC(=O)[C@H](Cc1ccc(O)cc1)NC(=O)[C@H](CO)NC(=O)[C@H](Cc1c[nH]c2ccccc12)NC(=O)[C@H](Cc1c[nH]cn1)NC(=O)[C@@H]1CCC(=O)N1 [Lupron ®, leuprolide acetate]",Breast Brdu-%,[1],0.3 ± 0.1%
same,Uterus epithelium Brdu-%,[1],3.1 ± 0.8%
same,Uterus stroma Brdu-%,[1],2.2 ± 1.0%
same,mean score for intensity of pain on a bad day (scale 0-10),[2]; baseline,6.1
same,score for intensity of pain on a bad day (scale 0-10),"[2]; month six, Lucrin once per month",0.7
same,score for intensity of pain on a bad day (scale 0-10),"[2]; month three, Lucrin once per month",1.5
same,pain free days over the 180 day treatment period,"[2]; women, Lucrin once per month",117.8 days
same,"pain free days, percent","[2]; women, Lucrin once per month, 180 day treatment period",74%
same,days of pain over the first three months,"[2]; women, Lucrin slow release injection once per month",19.4 days
same,thickening of the endometrium after three months,"human endometrium; Lucrin, five women",did not have a thickening of the endometrium
same,"Endometrium (mm), 1st dose","human endometrium; Lupron once per month, 1st dose visit",7.5 mm
same,"Endometrium (mm), 3 months","human endometrium; Lupron once per month, 3 months",2.75 mm
same,"Endometrium (mm), screening","human endometrium; Lupron once per month, screening (baseline)",7.9 mm
same,biomarkers of bone resorption compared with baseline,[3],statistically significant increase
same,estrogen level,[3],< 20 pg/mL
same,Decrease in luteal phase progesterone (number of animals),[4],13
same,No decrease in luteal phase progesterone (number of animals),[4],1
same,Breast Apo %,[5],1.4 ± 0.7%
same,Uterus epithelium Apo %,[5],0.2 ± 0.1%
same,Uterus stroma Apo %,[5],0.2 ± 0.1%
same,Follicular phase estrogen Lower?,[6]; Week 18,Yes
same,"Urinary estrogen, follicular phase, Mean",[6]; Week 18,49.9
same,Follicular phase estrogen Lower?,[6]; Week 36,Yes
same,"Urinary estrogen, follicular phase, Mean",[6]; Week 36,41.7
